Reference: the NIST ThermoML archive (doi:10.1016/j.jct.2007.07.005)

Assay: xn = mol fraction of the nth substance listed
Conditions: Fluid (supercritical or subcritical phases), vibrating tube

CCCCCO [pentan-1-ol] + O=C=O
Conditions | mass density [kg/m3]
362.59 K, 3010 kPa, x2 = 0 | 762.29
362.59 K, 3998 kPa, x2 = 0 | 763.28
362.59 K, 5006 kPa, x2 = 0 | 764.25
362.59 K, 6013 kPa, x2 = 0 | 765.23
362.59 K, 7014 kPa, x2 = 0 | 766.21
362.59 K, 8007 kPa, x2 = 0 | 767.16
362.59 K, 9020 kPa, x2 = 0 | 768.1
362.59 K, 10006 kPa, x2 = 0 | 769.02
362.59 K, 10991 kPa, x2 = 0 | 769.93
362.59 K, 12025 kPa, x2 = 0 | 770.87
362.59 K, 13008 kPa, x2 = 0 | 771.76
362.59 K, 13998 kPa, x2 = 0 | 772.62
362.59 K, 15017 kPa, x2 = 0 | 773.51
362.59 K, 16000 kPa, x2 = 0 | 774.37
362.59 K, 17013 kPa, x2 = 0 | 775.24
362.59 K, 18032 kPa, x2 = 0 | 776.11
362.59 K, 19003 kPa, x2 = 0 | 776.9
362.59 K, 20030 kPa, x2 = 0 | 777.77
362.59 K, 20987 kPa, x2 = 0 | 778.55
362.59 K, 22033 kPa, x2 = 0 | 779.4
362.59 K, 23000 kPa, x2 = 0 | 780.2
362.59 K, 24031 kPa, x2 = 0 | 781.02
362.59 K, 25026 kPa, x2 = 0 | 781.82
362.64 K, 10025 kPa, x2 = 0.3624 | 777.81
362.64 K, 11003 kPa, x2 = 0.3624 | 779.19
362.64 K, 12003 kPa, x2 = 0.3624 | 780.55
362.64 K, 12022 kPa, x2 = 0.4651 | 773.96
362.64 K, 13017 kPa, x2 = 0.3624 | 781.9
362.64 K, 13060 kPa, x2 = 0.4651 | 776.14
362.64 K, 14013 kPa, x2 = 0.3624 | 783.21
362.64 K, 14031 kPa, x2 = 0.4651 | 778.14
362.64 K, 15047 kPa, x2 = 0.4651 | 780.2
362.64 K, 15050 kPa, x2 = 0.3624 | 784.56
362.64 K, 16009 kPa, x2 = 0.3624 | 785.79
362.64 K, 16038 kPa, x2 = 0.4651 | 782.15
362.64 K, 17020 kPa, x2 = 0.4651 | 784.05
362.64 K, 17038 kPa, x2 = 0.3624 | 787.08
362.64 K, 17996 kPa, x2 = 0.3624 | 788.26
362.64 K, 18020 kPa, x2 = 0.4651 | 785.95
362.64 K, 19025 kPa, x2 = 0.3624 | 789.49
362.64 K, 19043 kPa, x2 = 0.4651 | 787.85
362.64 K, 20005 kPa, x2 = 0.3624 | 790.66
362.64 K, 20038 kPa, x2 = 0.4651 | 789.76
362.64 K, 21006 kPa, x2 = 0.3624 | 791.85
362.64 K, 21016 kPa, x2 = 0.4651 | 791.43
362.64 K, 22040 kPa, x2 = 0.3624 | 793.05
362.64 K, 22046 kPa, x2 = 0.4651 | 793.2
362.64 K, 22994 kPa, x2 = 0.3624 | 794.14
362.64 K, 23026 kPa, x2 = 0.4651 | 794.9
362.64 K, 24043 kPa, x2 = 0.3624 | 795.34
362.64 K, 24056 kPa, x2 = 0.4651 | 796.64
362.64 K, 25004 kPa, x2 = 0.3624 | 796.42
362.66 K, 3020 kPa, x2 = 0.0816 | 763.81
362.66 K, 3996 kPa, x2 = 0.0816 | 764.91
362.66 K, 4993 kPa, x2 = 0.0816 | 765.97
362.66 K, 6014 kPa, x2 = 0.0816 | 767.08
362.66 K, 7003 kPa, x2 = 0.0816 | 768.13
362.66 K, 8000 kPa, x2 = 0.0816 | 769.18
362.66 K, 9015 kPa, x2 = 0.0816 | 770.22
362.66 K, 10003 kPa, x2 = 0.0816 | 771.21
362.66 K, 11015 kPa, x2 = 0.0816 | 772.24
362.66 K, 12001 kPa, x2 = 0.0816 | 773.21
362.66 K, 13063 kPa, x2 = 0.0816 | 774.24
362.66 K, 14005 kPa, x2 = 0.0816 | 775.13
362.66 K, 15014 kPa, x2 = 0.0816 | 776.09
362.66 K, 16024 kPa, x2 = 0.9216 | 573.29
362.66 K, 16035 kPa, x2 = 0.0816 | 777.05
362.66 K, 17029 kPa, x2 = 0.0816 | 777.98
362.66 K, 17029 kPa, x2 = 0.9216 | 602.35
362.66 K, 18005 kPa, x2 = 0.0816 | 778.87
362.66 K, 18035 kPa, x2 = 0.9216 | 625.49
362.66 K, 19005 kPa, x2 = 0.9216 | 644.28
362.66 K, 19061 kPa, x2 = 0.0816 | 779.82
362.66 K, 19993 kPa, x2 = 0.0816 | 780.66
362.66 K, 20065 kPa, x2 = 0.9216 | 661.85
362.66 K, 21022 kPa, x2 = 0.0816 | 781.57
362.66 K, 21055 kPa, x2 = 0.9216 | 676.21
362.66 K, 22016 kPa, x2 = 0.9216 | 688.72
362.66 K, 22027 kPa, x2 = 0.0816 | 782.43
362.66 K, 23003 kPa, x2 = 0.0816 | 783.28
362.66 K, 23071 kPa, x2 = 0.9216 | 701.08
362.66 K, 23748 kPa, x2 = 0.9216 | 708.43
362.66 K, 23994 kPa, x2 = 0.0816 | 784.14
362.66 K, 25028 kPa, x2 = 0.0816 | 785.05
362.67 K, 16036 kPa, x2 = 0.7274 | 743.56
362.67 K, 17030 kPa, x2 = 0.7274 | 749.82
362.67 K, 18000 kPa, x2 = 0.7274 | 755.36
362.67 K, 19028 kPa, x2 = 0.7274 | 760.67
362.67 K, 20033 kPa, x2 = 0.7274 | 765.6
362.67 K, 21074 kPa, x2 = 0.7274 | 770.32
362.67 K, 22015 kPa, x2 = 0.7274 | 774.34
362.67 K, 23077 kPa, x2 = 0.7274 | 778.68
362.67 K, 24033 kPa, x2 = 0.7274 | 782.39
362.67 K, 25155 kPa, x2 = 0.7274 | 786.55
362.76 K, 15032 kPa, x2 = 0.6054 | 774.3
362.76 K, 16035 kPa, x2 = 0.6054 | 777.11
362.76 K, 17040 kPa, x2 = 0.6054 | 779.89
362.76 K, 18044 kPa, x2 = 0.6054 | 782.5
362.76 K, 19042 kPa, x2 = 0.6054 | 785.04
362.76 K, 20068 kPa, x2 = 0.6054 | 787.6
362.76 K, 21079 kPa, x2 = 0.6054 | 790.03
362.76 K, 22029 kPa, x2 = 0.6054 | 792.27
362.76 K, 23044 kPa, x2 = 0.6054 | 794.59
362.76 K, 24071 kPa, x2 = 0.6054 | 796.88
362.76 K, 25065 kPa, x2 = 0.6054 | 799.05
362.79 K, 7017 kPa, x2 = 0.1347 | 768.35
362.79 K, 7974 kPa, x2 = 0.1347 | 769.41
362.79 K, 9023 kPa, x2 = 0.1347 | 770.53
362.79 K, 9999 kPa, x2 = 0.1347 | 771.53
362.79 K, 10899 kPa, x2 = 0.1347 | 772.5
362.79 K, 12022 kPa, x2 = 0.1347 | 773.68
362.79 K, 13018 kPa, x2 = 0.1347 | 774.7
362.79 K, 14016 kPa, x2 = 0.1347 | 775.72
362.79 K, 15031 kPa, x2 = 0.1347 | 776.75
362.79 K, 16022 kPa, x2 = 0.1347 | 777.7
362.79 K, 17016 kPa, x2 = 0.1347 | 778.71
362.79 K, 18017 kPa, x2 = 0.1347 | 779.67
362.79 K, 19013 kPa, x2 = 0.1347 | 780.6
362.79 K, 20017 kPa, x2 = 0.1347 | 781.57
362.79 K, 21040 kPa, x2 = 0.1347 | 782.53
362.79 K, 22011 kPa, x2 = 0.1347 | 783.41
362.79 K, 23022 kPa, x2 = 0.1347 | 784.34
362.79 K, 24039 kPa, x2 = 0.1347 | 785.29
362.79 K, 25030 kPa, x2 = 0.1347 | 786.19
